Here are results for three compounds from ChEMBL document CHEMBL1146141, “Synthesis of constrained ceramide analogs and their potent antileukemic activities” (Bioorg Med Chem Lett, 2006).

Activity calls are given as the source filed them. The rule behind the calls is not given here.

The assay has as its system HL-60. The assay can be described thus: Antileukemic activity against human leukemia HL60 cells at 20 uM. Format: functional, cell-based.
Turning to `CCCCCCCCCCCCC/C=C/[C@@H](O)[C@@H]1COC(=O)N1C(=O)CC`, the outcome was Active. Then `CCCCCCCCCCCCC/C=C/[C@@H](O)[C@@H]1COC(=O)N1C(=O)CCCCCCCCCCCCCCC`, with “inactive”; and `CCCCCCCCCCCCC/C=C/[C@@H](O)[C@@H]1COC(=O)N1C(=O)c1ccccc1`, with “Active”.
